Here are results for one compound from PMC10924921, “Mi-2β promotes immune evasion in melanoma by activating EZH2 methylation” (Nature Communications, 2024).

Holding throughout (assay): biochemical
Parameters in all cases: KINOMEscan active-site competition binding panel (468 kinase assays), per cent of control at 1000 nM
Details in all cases: KINOMEscan per cent of control (binding competition); read-out: Percent Control

One assay addresses ERBB4 (Homo sapiens, UniProt Q15303). An excerpt:
(§1) Figure S7 / Percent Control

For assay [1], the target named is T1, RSK4(Kin.Dom.2-C-terminal) (Homo sapiens, UniProt Q9UK32).
T1 construct: gene RPS6KA6; Kin.Dom.2-C-terminal
Text: as §1

In the next assay the target is MERTK (Homo sapiens, UniProt Q12866).
Text: as §1

A further assay deals with T2, PCTK3 (Homo sapiens, UniProt Q07002).
T2 construct: gene CDK18
T2 sequence (Q07002 whole entry): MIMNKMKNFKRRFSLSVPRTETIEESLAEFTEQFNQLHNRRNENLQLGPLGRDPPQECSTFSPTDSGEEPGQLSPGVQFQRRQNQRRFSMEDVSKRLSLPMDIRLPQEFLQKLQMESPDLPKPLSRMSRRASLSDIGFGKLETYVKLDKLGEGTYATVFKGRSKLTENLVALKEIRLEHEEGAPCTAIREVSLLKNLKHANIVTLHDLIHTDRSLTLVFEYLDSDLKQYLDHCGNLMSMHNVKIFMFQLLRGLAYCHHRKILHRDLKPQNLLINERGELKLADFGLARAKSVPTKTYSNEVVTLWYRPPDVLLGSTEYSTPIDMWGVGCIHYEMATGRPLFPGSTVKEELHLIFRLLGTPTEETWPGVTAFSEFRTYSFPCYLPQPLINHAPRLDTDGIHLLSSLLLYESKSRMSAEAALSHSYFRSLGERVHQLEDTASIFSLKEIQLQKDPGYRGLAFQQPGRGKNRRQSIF
Text: as §1

Another assay deals with T3, ABL1-nonphosphorylated (Homo sapiens, UniProt P00519).
T3 construct: nonphosphorylated
T3 sequence (P00519 whole entry): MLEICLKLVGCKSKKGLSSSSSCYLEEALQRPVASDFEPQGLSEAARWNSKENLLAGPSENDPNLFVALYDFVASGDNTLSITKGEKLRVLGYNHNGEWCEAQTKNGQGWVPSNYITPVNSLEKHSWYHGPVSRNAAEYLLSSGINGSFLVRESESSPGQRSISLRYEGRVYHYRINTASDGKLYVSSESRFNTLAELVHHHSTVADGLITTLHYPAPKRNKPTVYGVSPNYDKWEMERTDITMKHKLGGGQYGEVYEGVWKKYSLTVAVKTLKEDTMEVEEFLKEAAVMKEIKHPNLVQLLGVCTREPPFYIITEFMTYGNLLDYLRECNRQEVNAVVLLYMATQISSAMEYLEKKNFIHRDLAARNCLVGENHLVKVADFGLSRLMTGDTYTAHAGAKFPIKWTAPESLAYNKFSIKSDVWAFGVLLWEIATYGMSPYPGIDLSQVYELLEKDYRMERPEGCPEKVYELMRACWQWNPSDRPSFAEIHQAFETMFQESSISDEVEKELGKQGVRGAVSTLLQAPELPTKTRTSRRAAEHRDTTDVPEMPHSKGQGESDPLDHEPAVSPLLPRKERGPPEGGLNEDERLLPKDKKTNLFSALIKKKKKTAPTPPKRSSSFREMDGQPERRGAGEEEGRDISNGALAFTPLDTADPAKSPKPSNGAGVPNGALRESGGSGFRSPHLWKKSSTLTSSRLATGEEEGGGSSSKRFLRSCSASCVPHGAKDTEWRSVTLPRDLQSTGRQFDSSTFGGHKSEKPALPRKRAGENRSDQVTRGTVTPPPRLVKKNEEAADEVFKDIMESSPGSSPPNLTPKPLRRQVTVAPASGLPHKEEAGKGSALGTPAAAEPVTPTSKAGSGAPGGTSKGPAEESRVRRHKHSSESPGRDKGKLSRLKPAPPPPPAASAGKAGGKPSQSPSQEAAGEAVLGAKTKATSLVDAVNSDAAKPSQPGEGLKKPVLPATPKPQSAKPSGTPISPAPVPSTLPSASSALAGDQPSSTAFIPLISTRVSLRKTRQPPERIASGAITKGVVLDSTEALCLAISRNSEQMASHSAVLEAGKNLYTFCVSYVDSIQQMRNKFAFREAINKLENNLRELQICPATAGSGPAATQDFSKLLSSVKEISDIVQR
Text: as §1

In the next assay the target is T4, PAK7 (Homo sapiens, UniProt Q9P286).
T4 construct: gene PAK5
Text: as §1

In a further assay the target is T5, HPK1 (Homo sapiens, UniProt Q92918).
T5 construct: gene MAP4K1
Text: as §1

In another assay the target is HIPK2 (Homo sapiens, UniProt Q9H2X6).
Text: as §1

Another assay deals with T6, MLCK (Homo sapiens, UniProt Q32MK0).
T6 construct: gene MYLK3
T6 sequence (Q32MK0 whole entry): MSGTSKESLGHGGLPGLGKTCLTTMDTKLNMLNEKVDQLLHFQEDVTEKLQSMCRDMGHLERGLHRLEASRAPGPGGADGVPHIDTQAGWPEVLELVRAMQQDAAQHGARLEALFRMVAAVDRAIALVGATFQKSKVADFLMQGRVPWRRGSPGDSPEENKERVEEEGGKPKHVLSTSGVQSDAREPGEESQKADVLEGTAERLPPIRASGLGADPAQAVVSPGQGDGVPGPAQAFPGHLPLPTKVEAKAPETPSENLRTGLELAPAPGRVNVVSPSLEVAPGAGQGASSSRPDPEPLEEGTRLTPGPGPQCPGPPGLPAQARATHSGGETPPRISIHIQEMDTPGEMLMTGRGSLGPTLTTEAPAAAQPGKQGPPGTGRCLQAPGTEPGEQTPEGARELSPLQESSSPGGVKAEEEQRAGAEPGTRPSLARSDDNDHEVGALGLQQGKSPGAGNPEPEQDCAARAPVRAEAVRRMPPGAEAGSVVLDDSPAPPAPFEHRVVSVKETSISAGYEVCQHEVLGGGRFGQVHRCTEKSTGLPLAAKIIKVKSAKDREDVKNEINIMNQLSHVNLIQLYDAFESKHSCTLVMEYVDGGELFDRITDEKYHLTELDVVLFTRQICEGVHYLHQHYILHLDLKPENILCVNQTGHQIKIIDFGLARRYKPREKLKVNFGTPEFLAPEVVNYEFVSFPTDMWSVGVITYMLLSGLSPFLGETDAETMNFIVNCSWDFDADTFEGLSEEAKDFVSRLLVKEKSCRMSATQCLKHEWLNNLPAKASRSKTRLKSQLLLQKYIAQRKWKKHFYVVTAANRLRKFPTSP
Text: as §1

A further assay has as its target ULK2 (Homo sapiens, UniProt Q8IYT8).
Text: as §1

A further assay deals with TLK2 (Homo sapiens, UniProt Q86UE8).
Text: as §1

The target in another assay is RIPK1 (Homo sapiens, UniProt Q13546).
RIPK1, sequence (Q13546 whole entry): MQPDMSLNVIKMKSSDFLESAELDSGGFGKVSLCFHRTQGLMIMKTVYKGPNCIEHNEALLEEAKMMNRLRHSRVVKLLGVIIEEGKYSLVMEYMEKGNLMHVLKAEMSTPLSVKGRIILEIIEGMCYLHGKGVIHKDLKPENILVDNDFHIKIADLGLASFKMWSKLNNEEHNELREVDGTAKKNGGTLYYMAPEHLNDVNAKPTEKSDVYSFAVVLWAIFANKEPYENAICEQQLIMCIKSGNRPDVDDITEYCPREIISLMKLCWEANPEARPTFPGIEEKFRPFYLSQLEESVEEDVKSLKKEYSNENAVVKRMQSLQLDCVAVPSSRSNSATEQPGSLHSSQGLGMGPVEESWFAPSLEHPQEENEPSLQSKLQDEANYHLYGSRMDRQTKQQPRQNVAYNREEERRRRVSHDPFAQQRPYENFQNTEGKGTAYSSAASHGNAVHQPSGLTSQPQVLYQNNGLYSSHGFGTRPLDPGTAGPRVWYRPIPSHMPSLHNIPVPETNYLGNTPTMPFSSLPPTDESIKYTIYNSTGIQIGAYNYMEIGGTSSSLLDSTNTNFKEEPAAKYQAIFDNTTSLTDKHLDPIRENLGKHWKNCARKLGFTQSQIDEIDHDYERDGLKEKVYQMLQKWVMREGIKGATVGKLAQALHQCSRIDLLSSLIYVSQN
Text: as §1

A further assay deals with ERN1 (Homo sapiens, UniProt O75460).
Text: as §1

The target in assay [2] is T7, RPS6KA5(Kin.Dom.2-C-terminal) (Homo sapiens, UniProt O75582).
T7 construct: Kin.Dom.2-C-terminal
T7 sequence (O75582 whole entry): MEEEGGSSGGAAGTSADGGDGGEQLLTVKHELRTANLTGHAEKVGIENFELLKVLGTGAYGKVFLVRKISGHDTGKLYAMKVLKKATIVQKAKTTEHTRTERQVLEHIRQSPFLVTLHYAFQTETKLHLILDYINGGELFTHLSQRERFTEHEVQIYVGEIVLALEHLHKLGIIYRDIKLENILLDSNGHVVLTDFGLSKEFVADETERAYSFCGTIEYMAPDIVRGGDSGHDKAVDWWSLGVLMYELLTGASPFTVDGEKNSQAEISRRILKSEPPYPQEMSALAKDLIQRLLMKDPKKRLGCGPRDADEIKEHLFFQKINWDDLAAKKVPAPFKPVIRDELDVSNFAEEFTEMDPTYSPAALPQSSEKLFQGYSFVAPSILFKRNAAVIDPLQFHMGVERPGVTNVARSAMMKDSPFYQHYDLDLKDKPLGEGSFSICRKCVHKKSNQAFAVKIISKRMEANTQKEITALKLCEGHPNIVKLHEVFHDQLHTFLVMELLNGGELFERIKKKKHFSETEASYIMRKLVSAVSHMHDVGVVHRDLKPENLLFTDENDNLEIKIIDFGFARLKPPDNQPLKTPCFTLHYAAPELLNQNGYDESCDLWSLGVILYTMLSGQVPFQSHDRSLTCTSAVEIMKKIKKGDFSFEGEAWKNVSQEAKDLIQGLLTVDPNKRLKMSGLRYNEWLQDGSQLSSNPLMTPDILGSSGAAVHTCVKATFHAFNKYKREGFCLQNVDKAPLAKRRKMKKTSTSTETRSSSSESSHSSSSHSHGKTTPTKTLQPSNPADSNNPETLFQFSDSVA
Text: as §1

Another assay addresses CSNK2A2 (Homo sapiens, UniProt P19784).
Text: as §1

Another assay deals with T8, MST3 (Homo sapiens, UniProt Q9Y6E0).
T8 construct: gene STK24
T8 sequence (Q9Y6E0 whole entry): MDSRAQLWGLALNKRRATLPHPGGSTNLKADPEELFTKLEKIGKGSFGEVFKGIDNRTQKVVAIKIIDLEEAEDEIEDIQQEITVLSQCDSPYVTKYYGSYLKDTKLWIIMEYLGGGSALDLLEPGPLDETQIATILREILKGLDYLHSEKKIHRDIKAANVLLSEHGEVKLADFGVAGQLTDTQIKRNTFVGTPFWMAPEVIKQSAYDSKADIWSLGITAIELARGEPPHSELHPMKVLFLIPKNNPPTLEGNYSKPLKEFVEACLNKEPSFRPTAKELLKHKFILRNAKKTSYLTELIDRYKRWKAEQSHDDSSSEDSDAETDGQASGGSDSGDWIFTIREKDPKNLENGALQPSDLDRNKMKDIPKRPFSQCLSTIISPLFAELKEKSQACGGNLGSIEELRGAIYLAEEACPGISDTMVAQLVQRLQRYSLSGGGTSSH
Text: as §1

The target in another assay is EPHB6 (Homo sapiens, UniProt O15197).
Text: as §1

The next assay addresses EIF2AK1 (Homo sapiens, UniProt Q9BQI3).
Text: as §1

A further assay deals with VRK2 (Homo sapiens, UniProt Q86Y07).
Text: as §1

Another assay deals with NEK7 (Homo sapiens, UniProt Q8TDX7).
NEK7, sequence (Q8TDX7 whole entry): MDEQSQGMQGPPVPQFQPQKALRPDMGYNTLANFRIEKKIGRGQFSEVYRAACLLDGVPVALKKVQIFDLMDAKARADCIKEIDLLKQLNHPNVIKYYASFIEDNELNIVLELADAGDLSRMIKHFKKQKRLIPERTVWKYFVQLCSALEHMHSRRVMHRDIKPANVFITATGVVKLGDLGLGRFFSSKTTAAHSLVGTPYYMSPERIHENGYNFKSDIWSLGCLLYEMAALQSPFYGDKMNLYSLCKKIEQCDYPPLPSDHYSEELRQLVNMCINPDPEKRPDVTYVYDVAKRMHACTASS
Text: as §1

In a further assay the target is AAK1 (Homo sapiens, UniProt Q2M2I8).
Text: as §1

A further assay addresses NEK3 (Homo sapiens, UniProt P51956).
Text: as §1

Another assay concerns the target FLT3(D835Y) (Homo sapiens, UniProt P36888, D835Y).
Text: as §1

The next assay addresses PIK3CA(M1043I) (Homo sapiens, UniProt P42336, M1043I).
Text: as §1

CSNK2A2, sequence (P19784 whole entry): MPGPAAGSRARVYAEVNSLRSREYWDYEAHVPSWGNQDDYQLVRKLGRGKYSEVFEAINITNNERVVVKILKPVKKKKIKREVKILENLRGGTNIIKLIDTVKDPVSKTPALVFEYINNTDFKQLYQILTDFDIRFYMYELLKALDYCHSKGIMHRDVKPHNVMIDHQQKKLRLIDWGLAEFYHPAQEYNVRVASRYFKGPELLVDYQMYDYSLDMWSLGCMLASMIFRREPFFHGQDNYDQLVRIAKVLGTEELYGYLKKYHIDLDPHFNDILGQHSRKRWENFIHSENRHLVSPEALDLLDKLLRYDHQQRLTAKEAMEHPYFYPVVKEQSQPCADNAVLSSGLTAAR

For the compound `Cn1c(=O)[nH]c2ccc(-c3cccc(C(=O)NC4CCn5ccnc5C4)c3)cc21` (stereo not drawn) [Z36-MP5], the remaining binding at 1 µM is 96% on ERBB4; 82% in [1]; 70% at MERTK; 86% at PCTK3; 91% on ABL1-nonphosphorylated; 92% at PAK7. In addition, the remaining binding at 1 µM at HPK1 came out at 83%; at HIPK2 it was 64%; at MLCK, 91%; on ULK2, 59%; at TLK2, 53%; on RIPK1, 87%. Further, the remaining binding at 1 µM at ERN1 is 49%; in assay [2], 51%; at CSNK2A2, 63%; at MST3, 96%; at EPHB6 it was 81%; at EIF2AK1, 73%. Also, the remaining binding at 1 µM at VRK2 is 72%; at NEK7, 89%; on AAK1, 91%; on NEK3 it was 50%; on FLT3(D835Y), 88%; on PIK3CA(M1043I) it was 83%.
